Measured values reported in article PMC3502511, “Inhibition of the Prokaryotic Pentameric Ligand-Gated Ion Channel ELIC by Divalent Cations” (PLoS Biology, 2012).
Where two headings read alike, the source gives them in different places.

Key:
Type in all cases: cell-based, Erwinia chrysanthemi
ELIC WT [1] = target: T1, ELIC WT (Dickeya chrysanthemi, UniProt P0C7B7, INS163G); assay: cell-based; conditions: WT; for Slope: Schild plot slope
T1 construct: expressed in transfected cells; host or cells: X. laevis oocytes (cRNA injection, pTLN vector)
Method: (§1) Constructs containing the gene of either the WT or mutant channels preceded by the signal sequence of the chicken α7nAchR were cloned into the pTLN vector for expression in X. laevis oocytes. After linearization of the plasmid DNA by MluI, capped complementary RNA was transcribed with the mMessage mMachine kit (Ambion) and purified with the RNeasy kit (Qiagen). For expression, 1–50 ng of RNA was injected into defolliculated oocytes. Two-electrode voltage clamp measurements were performed 1 d after injection at 20°C (OC-725B, Warner Instrument Corp.). Currents were recorded in bath solutions containing 10 mM HEPES (pH 7), 130 mM NaCl, and the indicated concentrations of cysteamine and divalent cations. In case of solutions containing Zn^2+, cysteamine was replaced by propylamine. The membrane potential in all dose–response measurements was set to −40 mV. As ELIC is permeable to divalent cations, we tested if endogenous calcium-activated chloride channels affected our measurements. To chelate intracellular calcium ions, the oocytes were incubated for 15 to 30 min in bath solutions lacking divalent ions but containing 10 µM BAPTA-AM.

ELIC R91A = target: T2, ELIC R91A (Dickeya chrysanthemi, UniProt P0C7B7, INS163G/R91A); assay: Two-electrode voltage clamp, ELIC R91A in oocytes; conditions: R91A
T2 construct: expressed in transfected cells; host or cells: X. laevis oocytes
Method: as §1

ELIC D113A/D158A = target: T3, ELIC D113A/D158A (Dickeya chrysanthemi, UniProt P0C7B7, D113A/D158A/INS163G); assay: cell-based; conditions: agonist propylamine; for EC50: 113A/158A
T3 construct: expressed in transfected cells; host or cells: X. laevis oocytes
Method: as §1

ELIC WT [2] = target: T4, ELIC WT (Dickeya chrysanthemi, UniProt P0C7B7); assay: cell-based; conditions: WT, agonist propylamine
T4 construct: expressed in transfected cells; host or cells: X. laevis oocytes (cRNA injection, pTLN vector)
Method: as §1

ELIC H176A = target: T5, ELIC H176A (Dickeya chrysanthemi, UniProt P0C7B7, H176A/INS163G); assay: Two-electrode voltage clamp, ELIC H176A in oocytes; conditions: agonist propylamine
T5 construct: expressed in transfected cells; host or cells: X. laevis oocytes
Method: as §1

ELIC H168A = target: T6, ELIC H168A (Dickeya chrysanthemi, UniProt P0C7B7, H168A/INS163G); assay: Two-electrode voltage clamp, ELIC H168A in oocytes; conditions: agonist propylamine
T6 construct: expressed in transfected cells; host or cells: X. laevis oocytes
Method: as §1

ELIC = target: T7, ELIC (Dickeya chrysanthemi, UniProt P0C7B7, INS163G); assay: Agonist concentration jumps, outside-out patches from HEK 293 cells expressing ELIC
T7 construct: expressed in transfected cells; host or cells: HEK 293 cells (ATCC CRL-1573), pcDNA3
Method: Human embryonic kidney 293 cells (American Type Culture Collection-CRL-1573;LGC Promochem) were maintained at 37°C in a 95% air/5% CO2 incubator in DMEM supplemented with 0.11 g/l sodium pyruvate, 10% (v/v) heat-inactivated fetal bovine serum, 100 U/ml penicillin G, 100 µg/ml streptomycin sulfate, and 2 mM L-glutamine (Invitrogen). Cells (passaged every 2 d, up to 30 times) were plated and transfected by calcium phosphate-DNA coprecipitation, with a total amount of DNA of 3 µg/dish (82% ELIC and 18% eGFP DNA, both subcloned in pcDNA3).
Cells were bathed in an extracellular solution containing (mM): 150 KCl, 0.05 or 0.2 CaCl2, and 10 HEPES, pH adjusted to 7.4 with KOH (osmolarity 310 mOsm). Patch pipettes were pulled from thick-walled borosilicate glass (GC150F; Harvard Apparatus) and fire polished to a resistance of 8–12 MΩ. Intracellular solution contained (mM): 150 KCl, 0.5 CaCl2, 5 EGTA, and 10 HEPES, pH adjusted to 7.4 with KOH. Agonist-evoked currents were recorded at 20°C with an Axopatch 200B amplifier (Molecular Devices) from outside-out patches held at −100 mV. Patches were stepped to this holding voltage 0.2 s before the agonist was applied and otherwise held at −40 mV. No correction for junction potential was applied (calculated value 0.2 mV). Currents were filtered at 5 kHz, digitized at 50 kHz with Digidata 1322A, and saved directly on computer with Clampex software (all MDS Analytical Technologies).
All concentration jumps were performed using a piezo stepper (Burleigh instruments) with an application tool made from theta tube glass (Hilgenberg; final tip diameter, 150 µm). Voltage commands for the piezo stepper were 200 ms square pulses conditioned by low-pass eight-pole Bessel filtering (−3 dB frequency 5 kHz) to smooth oscillations. Actual exchange time was estimated by recording the open-tip response to the application of diluted extracellular solution (70% water) after rupture of the patch. Only patches in which the 20%–80% exchange time was faster than 250 µs were included in the analysis.
Agonist solutions were freshly prepared every day from 1 M stock solutions. Propylamine was applied at a concentration known to elicit maximum response (20 mM and 50 mM, for 50 and 200 µM Ca^2+, respectively). Traces shown are averages of 5 or 10 individual agonist currents, separated by at least 10 s. Responses were averaged, and the time course of activation and deactivation (between 95% and 5% of the peak current level) was fitted with one exponential component (program Clampfit 9.0).

[3] = Ca^2+ 50 µM, propylamine 20 mM (last line, repeat)
[4] = Ca^2+ 50 µM, propylamine 20 mM, −100 mV (first line)
[5] = Ca^2+ 200 µM, propylamine 20 mM
[6] = Ca^2+ 200 µM, propylamine 50 mM

Work on `[Sr+2]` [Sr^2+] yielded a Ki (ELIC WT [1]; Schild analysis, agonist cysteamine, read-out: Ki app) of 0.85 mM, a Slope (ELIC WT [1]; agonist cysteamine) of 0.9±0.02 and a pA (ELIC WT [1]; Schild plot x-intercept (log of mM), agonist cysteamine, −40 mV) of −0.07±0.02.

With `C[N+](C)(C)C` [TMA, tetramethylammonium] the Ki (ELIC R91A; Schild analysis, read-out: Ki app) was 6 mM, the Slope (ELIC R91A; Schild plot slope) was 0.8±0.1 and the pA (ELIC R91A; agonist cysteamine) was 0.78±0.18.

For `[Zn+2]` [Zn^2+, zinc], the “modulation in the double mutant” value (ELIC D113A/D158A; D113A/D158A) was “abolish”, the Ki (ELIC WT [1]; Schild analysis, agonist propylamine, read-out: Ki app) was 0.007 mM and the Slope (ELIC WT [1]; agonist propylamine) was 1.2±0.01. The pA (ELIC WT [1]; Schild plot x-intercept, agonist propylamine) was −2.16±0.13 and the Ki (ELIC WT [1]; agonist propylamine, read-out: Schild plot x-intercept) was 0.008 mM.

`CCCN` [propylamine] showed an EC50 (ELIC D113A/D158A; Zn^2+ 0 mM) of 3.7 mM, an EC50 (ELIC D113A/D158A; Zn^2+ 0.01 mM) of 4.56 mM and an EC50 (ELIC D113A/D158A; Zn^2+ 0.1 mM) of 4.22 mM. The EC50 (ELIC WT [2]; Zn^2+ 0.01 mM) was 0.92 mM, the EC50 (ELIC WT [2]; Zn^2+ 0.05 mM) was 3.72 mM and the EC50 (ELIC WT [2]; Zn^2+ 0.1 mM) was 10.1 mM. It also gave an EC50 (ELIC H176A; Zn^2+ 0 mM) of 5.16 mM, an EC50 (ELIC H176A; Zn^2+ 0.01 mM) of 11.9 mM and an EC50 (ELIC H176A; Zn^2+ 0.025 mM) of 25.5 mM. The EC50 (ELIC H168A; Zn^2+ 0 mM) was 0.67 mM, the EC50 (ELIC H168A; Zn^2+ 0.01 mM) was 1.17 mM and the EC50 (ELIC H168A; Zn^2+ 0.05 mM) was 4.82 mM. It also gave an EC50 (ELIC H168A; Zn^2+ 0.1 mM) of 12.2 mM, a τdecay (ELIC; [3]) of 33.5 ± 6.9 ms and a τrise (ELIC; [3]) of 19.6 ± 3.1 ms. For the same compound, the τdecay (ELIC; [4]) was 34.7 ± 5.6 ms, the τrise (ELIC; [4]) was 16.7 ± 1.5 ms and the τdecay (ELIC; [5]) was 23.9 ± 3.1 ms. It also gave a τrise (ELIC; [5]) of 38.5 ± 6.7 ms, a τdecay (ELIC; [6]) of 36.7 ± 12.7 ms and a τrise (ELIC; [6]) of 16.4 ± 2.2 ms.
